Experimental data reported in the NIST ThermoML archive (doi:10.1021/je6005168).
Numbers after ± are expanded uncertainties.

Assay: molar heat capacity at constant pressure
Conditions: 101.33 kPa, Crystal, Small sample (50 mg) DSC

molar heat capacity at constant pressure (298.15 K) [J/K/mol] | molar heat capacity at constant pressure (303.15 K) [J/K/mol] | molar heat capacity at constant pressure (308.15 K) [J/K/mol] | molar heat capacity at constant pressure (313.15 K) [J/K/mol] | molar heat capacity at constant pressure (318.15 K) [J/K/mol] | molar heat capacity at constant pressure (323.15 K) [J/K/mol] | molar heat capacity at constant pressure (328.15 K) [J/K/mol] | molar heat capacity at constant pressure (333.15 K) [J/K/mol] | molar heat capacity at constant pressure (338.15 K) [J/K/mol] | molar heat capacity at constant pressure (343.15 K) [J/K/mol] | SMILES
189 ± 3.8 | 191 ± 3.8 | 193.1 ± 3.9 | 195.2 ± 3.9 | 197.3 ± 3.9 | 199.5 ± 4 | 201.6 ± 4 | 204 ± 4.1 | 206 ± 4.1 | 208 ± 4.2 | Cn1c(N)cc(=O)n(C)c1=O [6-amino-1,3-dimethyluracil]
145 ± 2.9 | 145.5 ± 2.9 | 146.2 ± 2.9 | 147 ± 2.9 | 148 ± 3 | 148.4 ± 3 | 149.1 ± 3 | 150 ± 3 | 150.6 ± 3 | 151.3 ± 3 | Nc1c[nH]c(=O)[nH]c1=O [2,4(1H,3H)-pyrimidinedione, 5-amino-]
166.2 ± 3.3 | 167 ± 3.3 | 168 ± 3.4 | 168.5 ± 3.4 | 169.2 ± 3.4 | 170 ± 3.4 | 171 ± 3.4 | 171.4 ± 3.4 | 172.2 ± 3.4 | 173 ± 3.5 | Cn1c(N)cc(=O)[nH]c1=O [6-amino-1-methyluracil]
147 ± 2.9 | 147.6 ± 3 | 148.2 ± 3 | 149 ± 3 | 149.6 ± 3 | 150.3 ± 3 | 151 ± 3 | 151.6 ± 3 | 152.3 ± 3 | 153 ± 3.1 | Nc1cc(O)nc(O)n1 [6-aminouracil]
